Data: US5618726A, “Biodegradable azo dyes” (priority 1994, dated 1997)

Key:
[1] = target: T1, horseradish peroxidase type II (Armoracia rusticana, UniProt P00433); assay: Oxidation of azo dyes by horseradish peroxidase preparation; assay type: biochemical; details: pH 8, 37° C., H2O2
T1 sequence (P00433 31-338): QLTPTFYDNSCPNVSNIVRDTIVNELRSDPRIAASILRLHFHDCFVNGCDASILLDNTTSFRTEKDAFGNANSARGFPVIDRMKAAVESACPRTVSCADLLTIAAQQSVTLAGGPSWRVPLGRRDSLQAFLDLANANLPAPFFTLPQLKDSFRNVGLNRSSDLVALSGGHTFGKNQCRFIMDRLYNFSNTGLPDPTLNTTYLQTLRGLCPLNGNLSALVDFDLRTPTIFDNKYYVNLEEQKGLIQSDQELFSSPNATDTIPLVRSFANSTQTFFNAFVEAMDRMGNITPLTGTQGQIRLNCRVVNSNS
Method: The reaction was started with the addition of 100 μl of 50 mM H2 O2 and was followed for 1 min at 37° C. Controls were run with no addition of H2 O2 or with the addition of the hemeperoxidase inhibitor KCN (final concentration 25 μM).

S. chromofuscus A11 = details: for Decolorization of growth medium by S. chromofuscus A11: both 50 and 100 ppm; for Degradation (%) after Streptomyces cultivation, strain A11: streptomyces chromofuscus a11 culture, 336 h
Method: (§1) Microbiol., 1984, 130:2905-2913.
(§2) Replicate sterile controls also were run in each experiment.
The Streptomyces were grown on the same media and under the same conditions as previously described. […] Thus, the spectrophotometric assays for substrates 1-12 were carried out at their specific isobastic points. Degradation was calculated as percent of substrates removed from culture broth, considering the evaporation factor (around 10%).

Mn(II)-peroxidase = assay: Oxidation of dyes by P. chrysosporium Mn(II)-peroxidase; assay type: biochemical, Phanerochaete chrysosporium; details: crude enzyme, conditions specific for Mn(II)-peroxidase
S. rochei A10 = assay type: cell-based; details: streptomyces rochei a10 culture, 336 h
Text: as §1, §2

S. diastaticus A13 = assay type: cell-based; details: streptomyces diastaticus a13 culture, 336 h
Text: as §1, §2

S. diastaticus A12 = assay type: cell-based; details: streptomyces diastaticus a12 culture, 336 h
Text: as §1, §2

[2] = system: Phanerochaete chrysosporium; assay: Substrate removal / decolorization by P. chrysosporium culture; assay type: cell-based; details: for % Decolorization, P. chrysosporium: 14 days
Method: Environ. Microbiol., 1981, 42:290-296), with the addition of 75 mg adenine (6-aminopurine) and 27 mg L-phenylalanine-per-liter. This addition accelerated the growth of the fungus without inhibiting ligninase activity. […] […] Cultures were incubated at 37° C. for 7 to 15 days with shaking (250 rpm). Solid agar media were also employed.

[3] = system: S. chromofuscus A11 extracellular peroxidase; assay: Oxidation of azo dyes by S. chromofuscus A11 crude enzyme preparation; assay type: biochemical, Streptomyces chromofuscus A11; details: pH 8, 37° C., H2O2
Method in brief: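 Enzyme from 48 h S. chromofuscus A11 culture supernatant, concentrated, ammonium sulfate-precipitated, dialyzed in 20 mM HEPES pH 8; yellow Sephadex G-25 fraction used. Reaction started with 100 μl 50 mM H2O2, followed 1 min at 37° C; controls without H2O2 or with 25 μM KCN.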

ligninase = assay: Oxidation of dyes by P. chrysosporium ligninase (crude preparation); assay type: biochemical, Phanerochaete chrysosporium; details: crude enzyme, conditions specific for ligninase
Method in brief: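 Crude P. chrysosporium ligninase oxidation of dyes, assayed by a previously reported method; conditions as for acid yellow 9, readings every 30 s for up to 15 minutes.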

[4] = beginning concentration 100 ppm
[5] = beginning concentration 150 ppm
[6] = beginning concentration 200 ppm
[7] = beginning concentration 300 ppm

| Compound | Oxidation rate of azo dyes, Horseradish peroxidase [1] | Decolorization of growth medium by S. chromofuscus A11 (S. chromofuscus A11) | Degradation (%) after Streptomyces cultivation, strain A11 (S. chromofuscus A11) | Oxidation rate of azo dyes, P. chrysosporium Mn-peroxidase (Mn(II)-peroxidase) | Degradation (%) after Streptomyces cultivation, strain A10 (S. rochei A10) | Degradation (%) after Streptomyces cultivation, strain A13 (S. diastaticus A13) | Degradation (%) after Streptomyces cultivation, strain A12 (S. diastaticus A12) | Concentration of substrate after ten days cultivation with P. chrysosporium [2, 4] | Concentration of substrate after ten days cultivation with P. chrysosporium [2, 5] | Concentration of substrate after ten days cultivation with P. chrysosporium [2, 6] | Concentration of substrate after ten days cultivation with P. chrysosporium [2, 7] | % Decolorization, P. chrysosporium ([2]; initial concn 150 ppm) | % Decolorization, P. chrysosporium ([2]; initial concn 300 ppm) | Oxidation rate of azo dyes, S. chromofuscus peroxidase [3] | Oxidation rate of azo dyes, P. chrysosporium Ligninase (ligninase) |
| --- | --- | --- | --- | --- | --- | --- | --- | --- | --- | --- | --- | --- | --- | --- | --- |
| Cc1cc(N=Nc2ccc(S(=O)(=O)O)cc2)cc(C)c1O [compound 3] | 30.68 μmoles per minute per ml | significantly decolorized | 73% | 16.37 μmoles per minute per ml | 68% | 10% | 39% | 0.358 ppm | 1.223 ppm | 1.894 ppm | 114.772 ppm | 96% | 97% | 17.20 μmoles per minute per ml | 0.42 μmoles per minute per ml |
| COc1cc(N=Nc2ccc(S(=O)(=O)O)cc2)cc(OC)c1O [compound 4] | 27.04 μmoles per minute per ml | significantly decolorized | 83% | 14.33 μmoles per minute per ml | 79% | 8% | 39% | 1.637 ppm | 3.763 ppm | 4.218 ppm | 16.323 ppm | 93% | 92% | 15.19 μmoles per minute per ml | 0.22 μmoles per minute per ml |
| Cc1cc(N=Nc2ccc(S(=O)(=O)O)cc2)ccc1O [compound 5] | 11.94 μmoles per minute per ml | significantly decolorized | 20% | 3.54 μmoles per minute per ml | 9% | 8% | 3% | 6.084 ppm | 9.870 ppm | 14.500 ppm | 22.680 ppm | 90% | 87% | 2.00 μmoles per minute per ml | 0.00 μmoles per minute per ml |
| CCC(C)c1cc(N=Nc2ccc(S(=O)(=O)O)cc2)ccc1O (stereo not drawn) [compound 10] | 0.35 μmoles per minute per ml | significantly decolorized | 16% | 2.86 μmoles per minute per ml | 11% | 6% | 7% | 8.135 ppm | 15.279 ppm | 46.588 ppm | 42.897 ppm | 90% | 92% | 0.78 μmoles per minute per ml | 0.51 μmoles per minute per ml |
